ChEMBL document CHEMBL5260828, “Amphiphilic glycoconjugates as potential anti-cancer chemotherapeutics” (Eur J Med Chem, 2018)
pIC50: −log10 of the molar value. Converted amounts (≈) assume the structure as drawn. Blank lines part the entries; values can stand above or below the compound they belong to.

What was measured:
A549 [1] = assay: Cytotoxicity against human A549 cells incubated for 72 hrs by MTT assay; format: functional, cell-based; details: A549, 72 h
K562 = assay: Cytotoxicity against human K562 cells; format: functional, cell-based
HeLa [2] = assay: Cytotoxicity against human HeLa cells assessed as inhibition of cell proliferation incubated for 72 hrs by MTT assay; format: functional, cell-based
HL-60 = assay: Cytotoxicity against human HL-60 cells assessed as inhibition of cell proliferation incubated for 72 hrs by MTT assay; format: functional, cell-based; details: HL-60, 72 h
MDA-MB-231 = assay: Cytotoxicity against human MDA-MB-231 cells assessed as reduction in cell viability incubated for 48 hrs by MTS assay; format: functional, cell-based
MIA PaCa-2 = assay: Cytotoxicity against human MIA PaCa-2 cells assessed as reduction in cell viability incubated for 48 hrs by MTS assay; format: functional, cell-based
PC-3 = assay: Cytotoxicity against human PC-3 cells assessed as reduction in cell viability incubated for 48 hrs by MTS assay; format: functional, cell-based
JIMT-1 = assay: Cytotoxicity against human JIMT-1 cells assessed as reduction in cell viability incubated for 48 hrs by MTS assay; format: functional, cell-based
DU-145 = assay: Cytotoxicity against human DU-145 cells assessed as reduction in cell viability incubated for 48 hrs by MTS assay; format: functional, cell-based
BT-474 = assay: Cytotoxicity against human BT-474 cells assessed as reduction in cell viability incubated for 48 hrs by MTS assay; format: functional, cell-based
HeLa [3] = assay: Cytotoxicity against human HeLa cells incubated for 48 hrs by MTT assay; format: functional, cell-based
MCF7 = assay: Cytotoxicity against human MCF7 cells incubated for 48 hrs by MTT assay; format: functional, cell-based; details: MCF7, 48 h
A549 [4] = assay: Cytotoxicity against human A549 cells incubated for 48 hrs by MTT assay; format: functional, cell-based; details: A549, 48 h
SGC-7901 = assay: Cytotoxicity against human SGC-7901 cells incubated for 48 hrs by MTT assay; format: functional, cell-based; details: SGC-7901, 48 h
HepG2 = assay: Cytotoxicity against human HepG2 cells incubated for 48 hrs by MTT assay; format: functional, cell-based; details: HepG2, 48 h
Fatty acid synthase = Fatty acid synthase (Gallus gallus, UniProt P12276); assay: Inhibition of Fatty acid synthase in chicken liver using [3H]-acetyl CoA as substrate preincubated for 30 mins followed by substrate addition and measured after 10 mins in presence of NADPH by scintillation counting analysis; format: tissue-based
[5] = molecular target: RAC-alpha serine/threonine-protein kinase (Homo sapiens, UniProt P31749); assay: Inhibition of AKT1 (unknown origin) in presence of ATP by ELISA
Chain of RAC-alpha serine/threonine-protein kinase (P31749 whole entry): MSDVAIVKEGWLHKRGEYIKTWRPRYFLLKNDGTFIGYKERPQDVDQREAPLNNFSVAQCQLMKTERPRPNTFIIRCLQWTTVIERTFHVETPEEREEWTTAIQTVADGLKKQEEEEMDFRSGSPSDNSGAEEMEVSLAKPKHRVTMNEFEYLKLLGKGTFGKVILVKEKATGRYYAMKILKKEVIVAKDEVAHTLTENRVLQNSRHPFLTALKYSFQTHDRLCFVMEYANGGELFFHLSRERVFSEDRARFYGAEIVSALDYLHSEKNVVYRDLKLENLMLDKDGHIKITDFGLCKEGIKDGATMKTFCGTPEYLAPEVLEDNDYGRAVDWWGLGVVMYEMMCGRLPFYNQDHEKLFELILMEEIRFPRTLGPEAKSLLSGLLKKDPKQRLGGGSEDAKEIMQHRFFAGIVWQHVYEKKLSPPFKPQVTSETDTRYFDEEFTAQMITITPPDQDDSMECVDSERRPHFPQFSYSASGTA

Chain of Fatty acid synthase (P12276 whole entry): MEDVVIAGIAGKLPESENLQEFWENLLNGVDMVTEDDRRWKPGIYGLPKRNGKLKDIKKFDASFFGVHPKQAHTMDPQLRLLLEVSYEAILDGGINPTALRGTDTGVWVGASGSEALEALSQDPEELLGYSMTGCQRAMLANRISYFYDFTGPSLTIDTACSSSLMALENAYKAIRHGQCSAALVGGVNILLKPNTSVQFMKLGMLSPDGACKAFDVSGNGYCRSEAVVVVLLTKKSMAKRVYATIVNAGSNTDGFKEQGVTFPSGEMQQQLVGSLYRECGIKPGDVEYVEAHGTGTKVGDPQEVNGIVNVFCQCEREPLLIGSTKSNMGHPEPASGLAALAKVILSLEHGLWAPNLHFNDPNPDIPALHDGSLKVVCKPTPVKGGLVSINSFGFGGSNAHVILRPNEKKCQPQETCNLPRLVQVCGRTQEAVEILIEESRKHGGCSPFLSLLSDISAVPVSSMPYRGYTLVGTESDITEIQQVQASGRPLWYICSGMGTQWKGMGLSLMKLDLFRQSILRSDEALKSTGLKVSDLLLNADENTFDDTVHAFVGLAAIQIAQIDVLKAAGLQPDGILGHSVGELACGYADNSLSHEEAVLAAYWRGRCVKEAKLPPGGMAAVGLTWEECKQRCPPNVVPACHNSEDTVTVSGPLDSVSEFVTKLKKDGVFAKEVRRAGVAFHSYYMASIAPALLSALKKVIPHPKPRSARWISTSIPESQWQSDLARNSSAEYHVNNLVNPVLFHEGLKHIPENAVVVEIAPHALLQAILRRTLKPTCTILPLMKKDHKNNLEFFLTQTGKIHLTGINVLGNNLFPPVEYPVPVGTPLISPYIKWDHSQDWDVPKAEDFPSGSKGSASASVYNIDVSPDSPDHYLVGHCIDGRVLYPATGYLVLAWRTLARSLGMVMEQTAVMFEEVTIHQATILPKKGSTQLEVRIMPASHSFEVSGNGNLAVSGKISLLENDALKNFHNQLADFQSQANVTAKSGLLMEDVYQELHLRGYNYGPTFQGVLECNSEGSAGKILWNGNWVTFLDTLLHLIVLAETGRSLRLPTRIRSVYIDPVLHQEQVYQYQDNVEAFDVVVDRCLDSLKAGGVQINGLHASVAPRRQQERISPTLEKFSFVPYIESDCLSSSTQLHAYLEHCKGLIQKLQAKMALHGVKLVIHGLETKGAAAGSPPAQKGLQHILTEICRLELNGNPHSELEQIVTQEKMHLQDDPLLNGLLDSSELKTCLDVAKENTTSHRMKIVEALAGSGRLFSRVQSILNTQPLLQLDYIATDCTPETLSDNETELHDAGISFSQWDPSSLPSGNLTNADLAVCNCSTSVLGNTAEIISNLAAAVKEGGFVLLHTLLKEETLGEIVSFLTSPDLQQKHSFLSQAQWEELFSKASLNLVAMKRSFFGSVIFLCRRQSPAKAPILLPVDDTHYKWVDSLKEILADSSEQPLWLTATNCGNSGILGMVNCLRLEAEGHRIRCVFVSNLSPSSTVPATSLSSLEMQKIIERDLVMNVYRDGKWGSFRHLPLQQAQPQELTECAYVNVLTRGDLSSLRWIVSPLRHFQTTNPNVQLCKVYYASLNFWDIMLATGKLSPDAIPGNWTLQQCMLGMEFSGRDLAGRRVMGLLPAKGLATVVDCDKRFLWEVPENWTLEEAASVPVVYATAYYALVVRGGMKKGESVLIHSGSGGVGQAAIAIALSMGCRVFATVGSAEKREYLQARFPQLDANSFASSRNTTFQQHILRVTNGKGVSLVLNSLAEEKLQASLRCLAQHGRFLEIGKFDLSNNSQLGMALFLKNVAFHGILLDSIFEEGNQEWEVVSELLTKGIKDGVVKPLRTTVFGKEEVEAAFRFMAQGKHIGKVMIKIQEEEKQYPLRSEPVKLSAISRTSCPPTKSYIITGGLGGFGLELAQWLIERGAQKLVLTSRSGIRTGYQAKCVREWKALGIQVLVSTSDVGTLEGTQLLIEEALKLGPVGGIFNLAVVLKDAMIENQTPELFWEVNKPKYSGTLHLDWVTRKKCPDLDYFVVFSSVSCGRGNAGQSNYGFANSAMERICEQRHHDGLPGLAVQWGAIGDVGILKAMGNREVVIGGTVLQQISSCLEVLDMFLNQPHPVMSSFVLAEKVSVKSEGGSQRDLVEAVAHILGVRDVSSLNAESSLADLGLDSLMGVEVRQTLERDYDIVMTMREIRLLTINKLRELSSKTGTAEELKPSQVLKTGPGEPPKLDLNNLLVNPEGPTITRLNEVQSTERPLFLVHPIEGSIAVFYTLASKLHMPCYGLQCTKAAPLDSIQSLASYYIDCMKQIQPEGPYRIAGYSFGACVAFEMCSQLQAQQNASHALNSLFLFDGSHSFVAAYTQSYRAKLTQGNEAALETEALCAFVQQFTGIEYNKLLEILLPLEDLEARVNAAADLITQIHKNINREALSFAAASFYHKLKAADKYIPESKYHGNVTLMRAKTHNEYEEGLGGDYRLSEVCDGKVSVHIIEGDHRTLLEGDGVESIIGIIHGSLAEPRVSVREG

SMILES: CCCCCCCCCCCCCC(=O)OCc1cn(C[C@H]2O[C@H](OC)[C@H](O)[C@@H](O)[C@@H]2O)nn1
pIC50 (A549 [1]): 4.68

SMILES: COC(C)(C)/C=C/C/C(C)=C/CC/C(C)=C/Cc1cc(O)c(C)cc1O[C@@H]1O[C@H](COC(C)=O)[C@H](OC(C)=O)[C@H](OC(C)=O)[C@H]1O
IC50 (K562): 9.4 µg/mL (≈ 14.5 µM)

SMILES: C/C=C/C/C(C)=C\[C@H]1C/C=C/C=C/C[C@H](C)/C=C(\C)[C@@H](OC)CCC[C@@H](O[C@@H]2O[C@H](CO)[C@@H](O)[C@H](OC)[C@H]2O)CC(=O)O1
pIC50 (HeLa [2]): 6.72
pIC50 (HL-60): 7.15

SMILES: CCCCCCCCCCCC(=O)OCc1cn(C[C@H]2O[C@H](OC)[C@H](O)[C@@H](O)[C@H]2O)nn1
pIC50 (A549 [1]): 4.68

SMILES: CC(=O)OC[C@H]1O[C@@H](Oc2cc(C)c(O)cc2C/C=C(\C)CC/C=C(\C)C[C@@H](O)C=C(C)C)[C@H](O)[C@@H](OC(C)=O)[C@H]1OC(C)=O
IC50 (K562): 2.6 µg/mL (≈ 4.11 µM)

SMILES: CCCCCCCCCCCCCCCCOC[C@H](CO[C@H]1O[C@H](CN)[C@@H](O)[C@H](O)[C@H]1NC(=O)CCCc1ccc(N(CCCl)CCCl)cc1)OC
pIC50 (MDA-MB-231; MDA-MB-231, 48 h): 5.22
pIC50 (MIA PaCa-2; MIA PaCa-2, 48 h): 5.22
pIC50 (PC-3; PC-3, 48 h): 5.22
pIC50 (JIMT-1; JIMT-1, 48 h): 5.22
pIC50 (DU-145; DU-145, 48 h): 5.22
pIC50 (BT-474; BT-474, 48 h): 5.22

SMILES: CCCCCCCC(=O)O[C@H]1[C@H](O[C@@H]2[C@H]3OC(=O)CCCCCCCCC[C@@H](CCCCC)O[C@@H]4O[C@H](CO)[C@@H](O)[C@H](O)[C@H]4O[C@H](O[C@H]2C)[C@@H]3O)O[C@@H](C)[C@H](O[C@@H]2O[C@@H](C)[C@H](OC(=O)[C@@H](C)CC)[C@@H](OC(=O)/C=C/c3ccccc3)[C@H]2O)[C@H]1O[C@@H]1O[C@@H](C)[C@H](O)[C@@H](O)[C@H]1O
pIC50 (HeLa [3]): 5.37
pIC50 (MCF7): 5.37
pIC50 (A549 [4]): 5.37
pIC50 (SGC-7901): 5.37
pIC50 (HepG2): 5.37

pIC50 (Fatty acid synthase): 4.81
SMILES: CCCCCCCCCCCCCCCCCCC/C=C/C(=O)OC[C@H](CO[C@@H]1O[C@H](CO[C@H]2O[C@H](CO)[C@H](O)[C@H](O)[C@H]2O)[C@H](O)[C@H](O)[C@H]1O)OC(=O)CCCCCCCCCCCCCCCCCCC

SMILES: CCCCCCCCCC(=O)O[C@H]1[C@H](O[C@@H]2[C@H]3OC(=O)CCCCCCCCC[C@@H](CCCCC)O[C@@H]4O[C@H](CO)[C@@H](O)[C@H](O)[C@H]4O[C@H](O[C@H]2C)[C@@H]3O)O[C@@H](C)[C@H](O[C@@H]2O[C@@H](C)[C@H](O/C(O)=C(/C)CC)[C@@H](O)[C@H]2OC(=O)/C=C/c2ccccc2)[C@H]1O[C@@H]1O[C@@H](C)[C@H](O)[C@@H](O)[C@H]1O
pIC50 (HeLa [3]): 5.37
pIC50 (MCF7): 5.37
pIC50 (A549 [4]): 5.37
pIC50 (SGC-7901): 5.37
pIC50 (HepG2): 5.37

SMILES: C/C=C/C/C(C)=C/[C@H]1C/C=C/C=C/C[C@H](C)/C=C(\C)[C@@H](OC)C/C=C/[C@@H](O[C@@H]2O[C@H](CO)[C@@H](O)[C@H](OC)[C@H]2O)CC(=O)O1
pIC50 (HeLa [2]): 5.51
pIC50 (HL-60): 6.18

SMILES: CCCCCCCCCC(=O)O[C@H]1[C@H](O[C@@H]2[C@H]3OC(=O)CCCCCCCCC[C@@H](CCCCC)O[C@@H]4O[C@H](CO)[C@@H](O)[C@H](O)[C@H]4O[C@H](O[C@H]2C)[C@@H]3O)O[C@@H](C)[C@H](O[C@@H]2O[C@@H](C)[C@H](OC(=O)[C@@H](C)CC)[C@@H](O)[C@H]2O)[C@H]1O[C@@H]1O[C@@H](C)[C@H](O)[C@@H](O)[C@H]1O
pIC50 (HeLa [3]): 5.37
pIC50 (MCF7): 5.37
pIC50 (A549 [4]): 5.37
pIC50 (SGC-7901): 5.37
pIC50 (HepG2): 5.37

SMILES: CC(=O)OC[C@H]1O[C@@H](Oc2cc(C)c(O)cc2C/C=C(\C)CC/C=C(\C)CCC=C(C)C)[C@H](O)[C@@H](OC(C)=O)[C@H]1OC(C)=O
IC50 (K562): 5.2 µg/mL (≈ 8.43 µM)

pIC50 [5]: < 4.00
SMILES: CCCCCCCCCOC(=O)O[C@H](COC(=O)CCCCCCCCC)COP(=O)(O)O[C@@H]1[C@H](O)[C@H](OP(=O)(O)O)[C@@H](O)[C@H](O)[C@H]1O

SMILES: CCCCCCCCCC(=O)O[C@H]1[C@H](O[C@@H]2[C@H]3OC(=O)CCCCCCCCC[C@@H](CCCCC)O[C@@H]4O[C@H](CO)[C@@H](O)[C@H](O)[C@H]4O[C@H](O[C@H]2C)[C@@H]3O)O[C@@H](C)[C@H](O[C@@H]2O[C@@H](C)[C@H](OC(=O)[C@@H](C)CC)[C@@H](OC(=O)/C=C/c3ccccc3)[C@H]2O)[C@H]1O[C@@H]1O[C@@H](C)[C@H](O)[C@@H](O)[C@H]1O
pIC50 (HeLa [3]): 5.37
pIC50 (MCF7): 5.37
pIC50 (A549 [4]): 5.37
pIC50 (SGC-7901): 5.37
pIC50 (HepG2): 5.37

SMILES: CC(=O)OC[C@H]1O[C@@H](Oc2cc(C)c(O)cc2C/C=C(\C)CC/C=C(\C)CC(=O)CC(C)C)[C@H](O)[C@@H](OC(C)=O)[C@H]1OC(C)=O
IC50 (K562): 8.1 µg/mL (≈ 12.8 µM)

SMILES: O=C(O)CCCc1ccc(N(CCCl)CCCl)cc1 [CHLORAMBUCIL]
CC50 (MDA-MB-231; MDA-MB-231, time 48 hrs): > 150 µM
CC50 (MIA PaCa-2; MIA PaCa-2, time 48 hrs): > 150 µM
CC50 (PC-3; PC-3, time 48 hrs): > 150 µM
CC50 (JIMT-1; JIMT-1, time 48 hrs): > 150 µM
CC50 (DU-145; DU-145, time 48 hrs): > 150 µM
CC50 (BT-474; BT-474, time 48 hrs): > 150 µM
